Laboratory results from US12514938B2, “Fibroblast activation protein targeting peptides” (PERSPECTIVE THERAPEUTICS, INC., priority 2023, dated 2026).
*1 amine or outer side, *2 acyl side, *3 side chain or, on linkers, in order; H or OH if unused. Where a SMILES comes first, the peptide text is derived from it. Bridges are numbered along the chain shown (N, C = ends). [ ]: non-standard residue; d: D form. The star is where a group is joined. X3 = NC(=O)CN1CCN(CC(=O)O)CCN(CC(=O)NCCOCCOCCC(=O)N[C@@H](Cc2ccccc2)C(=O)NC(CC(=O)[*:1])CC(=O)[*:2])CCN(CC(=O)O)CC1; X2 = NC(=O)CN1CCN(CC(=O)O)CCN(CC(=O)NCCOCCOCCC(=O)NCCSCc2cc(C[*:1])cc(C[*:2])c2)CCN(CC(=O)O)CC1; X1 = NC(=O)CN1CCN(CC(=O)O)CCN(CC(=O)*)CCN(CC(=O)O)CC1; oXylylene = c1ccc(C[*:2])c(C[*:1])c1; 12Ado = NCCCCCCCCCCCC(=O)O; PEG3 = NCCOCCOCCOCCC(=O)O; Dap = NC[C@H](N)C(=O)O; PEG2 = NCCOCCOCCC(=O)O; Butyryl = CCCC(=O)*

Assays:
[1] = tested on: hFAP-HT1080 tumors; test: Radiotherapeutic efficacy in human fibrosarcoma xenograft model; type: in vivo, athymic nude mice; details: 4.5-5.4 MBq over three fractionated doses, weight recorded over 70 days
Procedure: In vivo efficacy was determined in a sarcoma model where hFAP is expressed on the membrane of cancer cell surface. HT1080 cells engineered to express hFAP. 8 days prior to treatment, athymic nude mice were inoculated with approximately 2 million cells. The mice were then randomized by tumor size and divided into two groups for control and treatment. The treated group was treated with 4.5-5.4 MBq [^212Pb]-Pb-VMT-FAP-2-59 over three fractionated doses approximately 2 weeks apart. Two mice were treated a fourth time, at day 48 and day 53 with an additional 1.9-2.1MBq. Tumor volume was measured via caliper, and weight recorded over 70 days. […] Efficacy of VMT-FAP-2-59 in athymic nude mice bearing HT1080-FAP tumors. Tumor volume and weight was monitored over 70 days. The treatment group was given 4.5-5.4MBq ^212Pb-VMT-FAP-2-59 over 3 fractionated doses. Two mice with tumor recurrence were given an additional 1.9-2.1 MBq, as indicated by dashed arrows.

[2] = molecular target: T1, Human Fibroblast Activation Protein (FAP) (Homo sapiens, UniProt Q12884); test: Enzyme inhibition assay against human FAP (substrate Z-GP-AMC), Example 1; type: biochemical; details: human FAP 5 ng/well, 50 μM Z-GP-AMC; Ki from IC50 by Cheng-Prusoff
T1 sequence (Q12884 1-760): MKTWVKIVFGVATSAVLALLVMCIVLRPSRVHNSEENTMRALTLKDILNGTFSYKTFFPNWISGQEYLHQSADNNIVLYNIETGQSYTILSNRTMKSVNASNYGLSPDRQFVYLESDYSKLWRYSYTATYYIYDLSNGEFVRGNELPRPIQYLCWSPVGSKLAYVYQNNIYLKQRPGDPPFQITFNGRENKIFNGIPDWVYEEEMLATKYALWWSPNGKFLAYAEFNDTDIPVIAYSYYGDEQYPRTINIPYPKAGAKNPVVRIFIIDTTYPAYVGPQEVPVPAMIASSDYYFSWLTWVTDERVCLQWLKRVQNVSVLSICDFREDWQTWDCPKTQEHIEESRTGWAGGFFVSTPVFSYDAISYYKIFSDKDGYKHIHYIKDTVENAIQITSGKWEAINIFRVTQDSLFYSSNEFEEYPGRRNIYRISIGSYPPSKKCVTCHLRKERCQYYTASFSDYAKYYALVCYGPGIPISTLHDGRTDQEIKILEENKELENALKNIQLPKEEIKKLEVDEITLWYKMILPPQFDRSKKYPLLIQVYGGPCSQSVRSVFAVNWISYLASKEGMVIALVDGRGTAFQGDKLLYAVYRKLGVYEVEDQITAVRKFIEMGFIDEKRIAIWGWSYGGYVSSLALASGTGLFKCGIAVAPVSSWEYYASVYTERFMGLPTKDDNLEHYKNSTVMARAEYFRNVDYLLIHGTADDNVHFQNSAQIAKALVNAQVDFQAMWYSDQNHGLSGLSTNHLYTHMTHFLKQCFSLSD
Method in brief: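 FAP (5 ng/well) preincubated 10 min at RT with peptide (10^−6 to 10^−12), then 50 μM Z-GP-AMC added for 1 h at RT, protected from light. Buffer 50 mM Tris-HCl, 1 M NaCl, 1 mg/mL BSA, pH 7.5; fluorescence at ex/em 360/460. IC50 from non-linear regression, converted to Ki via Cheng-Prusoff using known substrate Km.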

Row | Structure (SMILES) | Treatment-related toxicity [1] | Ki [2]
1 | C[C@@H](O)[C@@H]1NC(=O)[C@@H](NC(=O)CCOCCOCCNC(=O)CN2CCN(CC(=O)O)CCN(CC(N)=O)CCN(CC(=O)O)CC2)CSCc2ccccc2CSC[C@@H](C(N)=O)NC(=O)[C@H](Cc2c[nH]c3ccccc23)NC(=O)[C@H](Cc2c[nH]c3ccccc23)NC(=O)[C@H](CCC(N)=O)NC(=O)[C@H](CCC(=O)O)NC(=O)[C@H](Cc2c[nH]c3ccccc23)NC(=O)[C@@H]2CCCN2C1=O [[^212Pb]VMT-FAP-2-59, metal not drawn] ({X1-PEG2}-CTPWEQWWC-NH2; linker 1-9 via oXylylene) | No treatment-related toxicity was observed | –
2 | CC(=O)N[C@@H](CC(N)=O)C(=O)N[C@H]1CSCc2ccccc2CSC[C@@H](C(N)=O)NC(=O)[C@H](Cc2c[nH]c3ccccc23)NC(=O)[C@H](Cc2c[nH]c3ccccc23)NC(=O)[C@H](CCC(N)=O)NC(=O)[C@H](CCC(=O)O)NC(=O)[C@H](Cc2c[nH]c3ccccc23)NC(=O)[C@@H]2CCCN2C(=O)[C@H]([C@@H](C)O)NC1=O [VMT-FAP-1-62, Ac-N[C(oXdB)TPWEQWWC]-NH2] (Ac-NCTPWEQWWC-NH2; linker 2-10 via oXylylene) | – | 0.46 nM
3 | C[C@@H](O)[C@@H]1NC(=O)[C@@H](NC(=O)CCOCCOCCOCCNC(=O)CN2CCN(CC(=O)O)CCN(CC(N)=O)CCN(CC(=O)O)CC2)CSCc2ccccc2CSC[C@@H](C(N)=O)NC(=O)[C@H](Cc2c[nH]c3ccccc23)NC(=O)[C@H](Cc2c[nH]c3ccccc23)NC(=O)[C@H](CCC(N)=O)NC(=O)[C@H](CCC(=O)O)NC(=O)[C@H](Cc2c[nH]c3ccccc23)NC(=O)[C@@H]2CCCN2C1=O [VMT-FAP-2-68, PSC-PEG3-[C(oXdB)TPWEQWWC]-NH2] ({X1-PEG3}-CTPWEQWWC-NH2; linker 1-9 via oXylylene) | – | 0.64 nM
4 | CC(=O)NCC(=O)N[C@H]1CSCc2ccccc2CSC[C@@H](C(N)=O)NC(=O)[C@H](Cc2c[nH]c3ccccc23)NC(=O)[C@H](Cc2c[nH]c3ccccc23)NC(=O)[C@H](CCC(N)=O)NC(=O)[C@H](CCC(=O)O)NC(=O)[C@H](Cc2ccccc2)NC(=O)[C@@H]2CCCN2C(=O)[C@H]([C@@H](C)O)NC1=O [VMT-FAP-1-1, Ac-G[C(oXdB)TPFEQWWC]-NH2] (Ac-GCTPFEQWWC-NH2; linker 2-10 via oXylylene) | – | 10.4 nM
5 | C[C@@H](O)[C@@H]1NC(=O)[C@@H]2CCCN2C(=O)[C@H](Cc2c[nH]c3ccccc23)NC(=O)[C@H](CCC(=O)O)NC(=O)[C@H](CCC(N)=O)NC(=O)[C@H](Cc2c[nH]c3ccccc23)NC(=O)[C@H](Cc2c[nH]c3ccccc23)NC(=O)[C@@H](NC(=O)CCOCCOCCNC(=O)CN2CCN(CC(=O)O)CCN(CC(N)=O)CCN(CC(=O)O)CC2)CSCc2ccccc2CSC[C@@H](C(=O)N[C@@H](CO)C(N)=O)NC1=O [VMT-FAP-2-84, PSC-PEG2-[C(oXdB)WWQEWPTC]S-NH2] ({X1-PEG2}-CWWQEWPTCS-NH2; linker 1-9 via oXylylene) | – | 115 nM
6 | C[C@@H](O)[C@@H]1NC(=O)[C@@H](NC(=O)CCCCCCCCCCCNC(=O)CN2CCN(CC(=O)O)CCN(CC(N)=O)CCN(CC(=O)O)CC2)CSCc2ccccc2CSC[C@@H](C(N)=O)NC(=O)[C@H](Cc2c[nH]c3ccccc23)NC(=O)[C@H](Cc2c[nH]c3ccccc23)NC(=O)[C@H](CCC(N)=O)NC(=O)[C@H](CCC(=O)O)NC(=O)[C@H](Cc2c[nH]c3ccccc23)NC(=O)[C@@H]2CCCN2C1=O [VMT-FAP-2-74, PSC-12-Ado-[C(oXdB)TPWEQWWC]-NH2] ({X1-12Ado}-CTPWEQWWC-NH2; linker 1-9 via oXylylene) | – | 6.66 nM
7 | CC(=O)N[C@@H](CC(=O)O)C(=O)N[C@H]1CSCc2ccccc2CSC[C@@H](C(N)=O)NC(=O)[C@H](Cc2c[nH]c3ccccc23)NC(=O)[C@H](Cc2c[nH]c3ccccc23)NC(=O)[C@H](CCC(N)=O)NC(=O)[C@H](CCC(=O)O)NC(=O)[C@H](Cc2ccccc2)NC(=O)[C@@H]2CCCN2C(=O)[C@H]([C@@H](C)O)NC1=O [VMT-FAP-1-14, Ac-D[C(oXdB)TPFEQWWC]-NH2] (Ac-DCTPFEQWWC-NH2; linker 2-10 via oXylylene) | – | 0.36 nM
8 | CCCC(=O)N[C@H]1CSCc2cc(CSCCNC(=O)CCOCCOCCNC(=O)CN3CCN(CC(=O)O)CCN(CC(N)=O)CCN(CC(=O)O)CC3)cc(c2)CSC[C@@H](C(N)=O)NC(=O)[C@H](Cc2c[nH]c3ccccc23)NC(=O)[C@H](Cc2c[nH]c3ccccc23)NC(=O)[C@H](CCC(N)=O)NC(=O)[C@H](CCC(=O)O)NC(=O)[C@H](Cc2c[nH]c3ccccc23)NC(=O)[C@@H]2CCCN2C(=O)[C@H]([C@@H](C)O)NC1=O [VMT-FAP-2-57, But-[C(mXtB(CA-PEG2-PSC))TPWEQWWC]-NH2] (Butyryl-CTPWEQWWC-NH2; linker 1-9 via X2) | – | 0.71 nM
9 | CC(=O)N[C@@H](CO)C(=O)N[C@H]1CNC(=O)CC(NC(=O)[C@H](Cc2ccccc2)NC(=O)CCOCCOCCNC(=O)CN2CCN(CC(=O)O)CCN(CC(N)=O)CCN(CC(=O)O)CC2)CC(=O)NC[C@@H](C(N)=O)NC(=O)[C@H](Cc2c[nH]c3ccccc23)NC(=O)[C@H](Cc2c[nH]c3ccccc23)NC(=O)[C@H](CCC(N)=O)NC(=O)[C@H](CCC(=O)O)NC(=O)[C@H](Cc2ccccc2)NC(=O)[C@@H]2CCCN2C(=O)[C@H]([C@@H](C)O)NC1=O (stereo partly drawn) [VMT-FAP-2-33, Ac-S-[Dap(bGlu(F-PEG2-PSC))TPFEQWWDap]-NH2] (Ac-S[Dap]TPFEQWW[Dap]-NH2; linker 2-10 via X3 (inferred)) | – | 1.26 nM
